Measured values taken from paper PMC9090415, “Discovery of small molecule inhibitors of Plasmodium falciparum apicoplast DNA polymerase” (Journal of Enzyme Inhibition and Medicinal Chemistry, 2022).

Molecular target: P. falciparum apicoplast DNA polymerase (Pf-apPOL) (Plasmodium falciparum, UniProt Q8ILY1)
Test: Fluorescence-based high-throughput DNA polymerase assay (molecular beacon), primary screen and dose-response
Format: biochemical
Details: for DNA Pol: 90 min, 10 µM
How it was run: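 Single-point screening used 10 µM compound with 20 nM polymerase, 20 nM hairpin substrate and 6 µM dNTPs for 90 min at 25 °C. Confirmatory titrations (2.5–80 µM) followed fluorescence at three times, and IC50 was derived from a fit including a cooperativity term n.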

P. falciparum apicoplast DNA polymerase (Pf-apPOL), sequence (Q8ILY1 entry or part of it): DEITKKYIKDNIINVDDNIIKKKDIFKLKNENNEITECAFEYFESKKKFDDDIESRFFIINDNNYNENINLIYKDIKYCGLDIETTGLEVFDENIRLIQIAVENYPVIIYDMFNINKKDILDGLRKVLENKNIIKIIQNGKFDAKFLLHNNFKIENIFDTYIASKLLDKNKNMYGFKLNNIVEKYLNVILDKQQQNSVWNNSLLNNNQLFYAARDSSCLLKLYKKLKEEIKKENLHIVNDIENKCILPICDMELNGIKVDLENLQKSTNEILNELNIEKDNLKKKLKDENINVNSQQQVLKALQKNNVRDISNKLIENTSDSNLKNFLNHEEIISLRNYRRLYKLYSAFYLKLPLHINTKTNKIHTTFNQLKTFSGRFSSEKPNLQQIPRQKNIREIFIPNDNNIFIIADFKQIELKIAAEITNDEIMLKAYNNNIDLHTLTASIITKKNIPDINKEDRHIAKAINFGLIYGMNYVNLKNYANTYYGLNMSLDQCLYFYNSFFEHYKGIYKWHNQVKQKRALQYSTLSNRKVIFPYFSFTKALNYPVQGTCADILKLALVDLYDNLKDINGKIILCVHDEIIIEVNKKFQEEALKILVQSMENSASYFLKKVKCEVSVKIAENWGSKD

## CCSc1nnc(NC(=O)Cc2csc(NC(=O)c3cnccn3)n2)s1 [Molecule 79, CCSc1nnc(s1)NC(=O)Cc1csc(n1)NC(=O)c1cnccn1]
'DNA Pol', screening value, unit not given
  DNA Pol: 44
DRC-1, concentration 2.5
  % inhibition Apo pol 10': -4.905%
DRC-1, concentration 5
  % inhibition Apo pol 10': -2.236%
DRC-1, concentration 10
  % inhibition Apo pol 10': 11.7558%
DRC-1, concentration 20
  % inhibition Apo pol 10': 21.8429%
DRC-1, concentration 40
  % inhibition Apo pol 10': 42.6087%
DRC-1, concentration 80
  % inhibition Apo pol 10': 77.5256%
DRC-1, 90', concentration 2.5
  % inhibition Apol 90': -9.3965%
DRC-1, 90', concentration 5
  % inhibition Apol 90': -9.701%
DRC-1, 90', concentration 10
  % inhibition Apol 90': -1.729%
DRC-1, 90', concentration 20
  % inhibition Apol 90': 6.401%
DRC-1, 90', concentration 40
  % inhibition Apol 90': 23.3518%
DRC-1, 90', concentration 80
  % inhibition Apol 90': 61.199%
DRC-1, 180', concentration 2.5
  % inhibition apPOL 180': -15.2579%
DRC-1, 180', concentration 5
  % inhibition apPOL 180': -16.9778%
DRC-1, 180', concentration 10
  % inhibition apPOL 180': -10.4775%
DRC-1, 180', concentration 20
  % inhibition apPOL 180': -5.476%
DRC-1, 180', concentration 40
  % inhibition apPOL 180': 8.736%
DRC-1, 180', concentration 80
  % inhibition apPOL 180': 42.542%
DRC-2, 5', concentration 2.5
  % inhibition Apo pol 5': 1.36%
DRC-2, 5', concentration 5
  % inhibition Apo pol 5': 13%
DRC-2, 5', concentration 10
  % inhibition Apo pol 5': 30%
DRC-2, 5', concentration 20
  % inhibition Apo pol 5': 43%
DRC-2, 5', concentration 40
  % inhibition Apo pol 5': 55%
DRC-2, 5', concentration 80
  % inhibition Apo pol 5': 62%
DRC-2, 40', concentration 2.5
  % inhibition Apol 40': -2.42%
DRC-2, 40', concentration 5
  % inhibition Apol 40': 7%
DRC-2, 40', concentration 10
  % inhibition Apol 40': 25%
DRC-2, 40', concentration 20
  % inhibition Apol 40': 40%
DRC-2, 40', concentration 40
  % inhibition Apol 40': 62%
DRC-2, 40', concentration 80
  % inhibition Apol 40': 76%
DRC-2, 90', concentration 2.5
  % inhibition ApPOL 90': -4.46%
DRC-2, 90', concentration 5
  % inhibition ApPOL 90': 5%
DRC-2, 90', concentration 10
  % inhibition ApPOL 90': 22%
DRC-2, 90', concentration 20
  % inhibition ApPOL 90': 35%
DRC-2, 90', concentration 40
  % inhibition ApPOL 90': 62%
DRC-2, 90', concentration 80
  % inhibition ApPOL 90': 79%
DRC-2, 180', concentration 2.5
  % inhibition apPOL 180': -6%
DRC-2, 180', concentration 5
  % inhibition apPOL 180': 1.68%
DRC-2, 180', concentration 10
  % inhibition apPOL 180': 14%
DRC-2, 180', concentration 20
  % inhibition apPOL 180': 26%
DRC-2, 180', concentration 40
  % inhibition apPOL 180': 59%
DRC-2, 180', concentration 80
  % inhibition apPOL 180': 81%
Conc 40 (unit not given), 40', DRC-2
  % inhibition Apol 40': 62%
Conc 40 (unit not given), 90', DRC-2
  % inhibition ApPOL 90': 62%
Conc 80 (unit not given), 5', DRC-2
  % inhibition Apo pol 5': 62%
Primary screen hit value, DNA Pol (186 hits)
  DNA Pol: 44

## Cc1ccc(-n2nnc(C(=O)O)c2-c2ccccn2)c(F)c1 [Molecule 54]
Supplemental file 2, sheet IC50 nontoxic compounds, Pf-apPOL
  IC50: 14.5 µM
